Numbers after ± are expanded uncertainties.
Assay: mn = molality of the nth substance listed, in mol/kg
Conditions: 75 kPa, Liquid; for viscosity: Capillary tube (Ostwald / Ubbelohde) method; for speed of sound: Frequency=3 MHz, Sing-around technique in a fixed-path interferometer; for mass density: Vibrating tube method

CCC(N)C(=O)O (stereo not drawn) [(.+-.)-α-aminobutyric acid] + O
Conditions	mass density [kg/m3]	speed of sound [m/s]	viscosity [mPa·s]
293.15 K, m1 = 0.09999	1001.01 ± 0.6	1490.7 ± 4.1	1.042 ± 0.031
293.15 K, m1 = 0.2999	1006.4 ± 0.6	1506.8 ± 4.1	1.109 ± 0.031
293.15 K, m1 = 0.4999	1011.57 ± 0.6	1522.6 ± 4.1	1.181 ± 0.031
293.15 K, m1 = 0.7	1016.56 ± 0.6	1538.5 ± 4.1	1.266 ± 0.031
293.15 K, m1 = 0.9001	1021.37 ± 0.6	1554.2 ± 4.1	1.358 ± 0.031
293.15 K, m1 = 1	1023.7 ± 0.6	1561.8 ± 4.1	1.416 ± 0.031
298.15 K, m1 = 0.09999	999.805 ± 0.6	1504.7 ± 4.1	0.905 ± 0.03
298.15 K, m1 = 0.2999	1005.12 ± 0.6	1519.9 ± 4.1	0.97 ± 0.031
298.15 K, m1 = 0.4999	1010.25 ± 0.6	1535.1 ± 4.1	1.057 ± 0.031
298.15 K, m1 = 0.7	1015.2 ± 0.6	1550 ± 4.1	1.121 ± 0.031
298.15 K, m1 = 0.9001	1019.98 ± 0.6	1565.1 ± 4.1	1.199 ± 0.031
298.15 K, m1 = 1	1022.3 ± 0.6	1572.4 ± 4.1	1.243 ± 0.031
303.15 K, m1 = 0.09999	998.37 ± 0.6	1516.8 ± 4.1	0.813 ± 0.03
303.15 K, m1 = 0.2999	1003.66 ± 0.6	1531.3 ± 4.1	0.869 ± 0.03
303.15 K, m1 = 0.4999	1008.75 ± 0.6	1545.8 ± 4.1	0.93 ± 0.03
303.15 K, m1 = 0.7	1013.66 ± 0.6	1560 ± 4.1	0.997 ± 0.031
303.15 K, m1 = 0.9001	1018.4 ± 0.6	1574.5 ± 4.1	1.061 ± 0.031
303.15 K, m1 = 1	1020.7 ± 0.6	1581.7 ± 4.1	1.097 ± 0.031
308.15 K, m1 = 0.09999	996.759 ± 0.6	1526.9 ± 4.1	0.731 ± 0.03
308.15 K, m1 = 0.2999	1002 ± 0.6	1540.8 ± 4.1	0.781 ± 0.03
308.15 K, m1 = 0.4999	1007.05 ± 0.6	1554.7 ± 4.1	0.834 ± 0.03
308.15 K, m1 = 0.7	1011.92 ± 0.6	1568.6 ± 4.1	0.891 ± 0.03
308.15 K, m1 = 0.9001	1016.62 ± 0.6	1582.5 ± 4.1	0.949 ± 0.031
308.15 K, m1 = 1	1018.9 ± 0.6	1589.5 ± 4.1	0.979 ± 0.031
313.15 K, m1 = 0.09999	994.9 ± 0.6	1535.7 ± 4.1	0.661 ± 0.03
313.15 K, m1 = 0.2999	999.99 ± 0.6	1548.7 ± 4.1	0.706 ± 0.03
313.15 K, m1 = 0.4999	1004.83 ± 0.6	1561.8 ± 4.1	0.754 ± 0.03
313.15 K, m1 = 0.7	1009.41 ± 0.6	1574.7 ± 4.1	0.804 ± 0.03
313.15 K, m1 = 0.9001	1013.72 ± 0.6	1588 ± 4.1	0.853 ± 0.03
313.15 K, m1 = 1	1015.78 ± 0.6	1595.1 ± 4.1	0.895 ± 0.03

Reference: the NIST ThermoML archive (doi:10.1016/j.jct.2016.09.040)
